36 compounds from US9115093B2, “Substituted bicyclic dihydropyrimidinones and their use as inhibitors of neutrophil elastase activity” (Boehringer Ingelheim International GmbH, priority 2013, dated 2015) can be followed below.

This assay concerns the target T1, neutrophil elastase (Homo sapiens, UniProt P08246).
T1 sequence (P08246 30-247 limits assumed): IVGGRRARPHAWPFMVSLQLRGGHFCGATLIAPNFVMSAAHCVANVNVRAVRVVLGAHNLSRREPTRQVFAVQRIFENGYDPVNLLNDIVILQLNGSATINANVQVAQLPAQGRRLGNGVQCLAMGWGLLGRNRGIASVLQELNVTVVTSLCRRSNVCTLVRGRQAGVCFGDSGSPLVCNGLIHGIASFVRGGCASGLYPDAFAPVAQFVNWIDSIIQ
Put plainly: Human Neutrophil Elastase Assay. Type of assay: biochemical. On the set-up: purchased Calbiochem 324681. The settings on record: substrate MeOSuc-Ala-Ala-Pro-Val-AMC, pH 7.5, room temperature. The protocol:
Human Neutrophil Elastase Assay
Materials: Human neutrophil elastase was purchased from Calbiochem (Cat.No.: 324681) and the elastase substrate MeOSuc-Ala-Ala-Pro-Val-AMC from Bachem (Cat.No.: I-1270). All other materials were of the highest grade commercially available.
The following buffers were used: Compound buffer: 100 mM Tris, 500 mM NaCl, adjusted to pH 7.5; Assay buffer: 100 mM Tris, 500 mM NaCl, adjusted to pH 7.5, containing 0.01% BSA.
Assay conditions: Test compounds were prediluted in DMSO and subsequently in compound buffer (5% DMSO final). 5 μL of these compound dilutions were mixed with 10 μl Neutrophil elastase (9 ng/ml in assay buffer) in a black 384 well OptiPlate (Perkin Elmer, Cat No.: 6007270) and incubated for 15 min at room temperature. Subsequently 10 μL substrate solution in assay buffer were added (250 nM final concentration) and the plates were incubated for 60 min at room temperature. After inactivation of the enzyme, fluorescence intensities were measured at 380 nm excitation and 460 nm emission wavelengths.
Each plate contains wells with a high value control (DMSO+enzyme+substrate) and wells with a low value control (DMSO+inactivated enzyme+substrate). IC50 values were estimated using a sigmoidal concentration response curve with variable slope. Means of low values were taken as 0%, means of high values as 100%.

pIC50: −log10 of the molar value.

`CS(=O)(=O)c1cc(C#N)ccc1C1C2=C(CCCC2=O)N(c2cccc(C(F)(F)F)c2)C(=O)N1C(=O)NCCO` (stereo not drawn) [Example 47.2] gave a negative logarithm of the IC50 (pIC50) greater than 9.00.
For `C[S+]([O-])CCNC(=O)N1C(=O)N(c2cccc(C(F)(F)F)c2)C2=C(C(=O)CCC2)C1c1ccc(C#N)cc1` (stereo not drawn) [Example 39.12] the value was greater than 9.00.
Take `CN1CCC2(CCN(C(=O)CN3C(=O)N(c4cccc(C(F)(F)F)c4)C4=C(C(=O)CCC4)C3c3ccc(C#N)cc3)C2)C1` (stereo not drawn) [Example 36.66]: the pIC50 is 8.24.
To `N#Cc1ccc(C2C3=C(CCCC3=O)N(c3cccc(C(F)(F)F)c3)C(=O)N2CC(=O)N2CCN(C3CC3)CC2)cc1` (stereo not drawn) [Example 36.55] belongs 7.67; to `CS(=O)(=O)CCN1C(=O)N(c2cccc(C(F)(F)F)c2)C2=C(C(=O)CCC2)C1c1ccc(C#N)cc1` (stereo not drawn) [Example 30, 4-(3-(2-(Methylsulfonyl)ethyl)-2,5-dioxo-1-(3-(trifluoromethyl)phenyl)-1,2,3,4,5,6,7,8-octahydroquinazolin-4-yl)benzonitrile], 8.40; to `Cn1ncc2c1CN(C(=O)CN1C(=O)N(c3cccc(C(F)(F)F)c3)C3=C(C(=O)CCC3)C1c1ccc(C#N)cc1)C2` (stereo not drawn) [Example 35, 4-(3-(2-(1-Methylpyrrolo[3,4-c]pyrazol-5(1H,4H,6H)-yl)-2-oxoethyl)-2,5-dioxo-1-(3-(trifluoromethyl)phenyl)-1,2,3,4,5,6,7,8-octahydroquinazolin-4-yl)benzonitrile], 8.77.
In turn, `N#Cc1ccc(C2C3=C(CCCC3=O)N(c3cccc(C(F)(F)F)c3)C(=O)N2CC(=O)N2CCN3C(=O)CCCC3C2)cc1` (stereo not drawn) [Example 36.72] had a pIC50 of 8.43.
On to `N#Cc1ccc([C@H]2C3=C(CCCC3=O)N(c3cccc(C(F)(F)F)c3)C(=O)N2CC(=O)O)cc1` [Example 32B, (S)-2-(4-(4-Cyanophenyl)-2,5-dioxo-1-(3-(trifluoromethyl)phenyl)-1,2,5,6,7,8-hexahydroquinazolin-3(4H)-yl)acetic acid], for which the pIC50 is 5.85.
Take `CNC(=O)N1C(=O)N(c2ccnc(C(F)(F)F)c2)C2=C(C(=O)CCC2)C1c1ccc(C#N)cc1` (stereo not drawn) [Example 76.1]: the negative logarithm of the IC50 (pIC50) is 8.36.
For the compound `Cn1ccc(CNC(=O)CN2C(=O)N(c3cccc(C(F)(F)F)c3)C3=C(C(=O)CCC3)C2c2ccc(C#N)cc2)n1` (stereo not drawn) [Example 36.33], the negative logarithm of the IC50 (pIC50) was 7.77.
For `Cn1cc(CN2C(=O)N(c3cccc(C(F)(F)F)c3)C3=C(C(=O)CCC3)C2c2ccc(C#N)cc2)cn1` (stereo not drawn) [Example 24.2], the negative-log IC50 (pIC50) is 8.01.
`CN(Cc1cnn(C)c1)C(=O)CN1C(=O)N(c2cccc(C(F)(F)F)c2)C2=C(C(=O)CCC2)C1c1ccc(C#N)cc1` (stereo not drawn) [Example 36.54] showed a negative logarithm of the IC50 (pIC50) of 8.54.
The compound `N#Cc1ccc(C2C3=C(CCCC3=O)N(c3cccc(C(F)(F)F)c3)C(=O)N2CC(=O)NCCn2cccn2)cc1` (stereo not drawn) [Example 36.32] showed a negative-log IC50 (pIC50) of 7.85.
To `N#Cc1ccc(C2C3=C(CCCC3=O)N(c3cccc(C(F)(F)F)c3)C(=O)N2S(=O)(=O)CCCC(=O)O)cc1` (stereo not drawn) [Example 45, 4-(4-(4-Cyanophenyl)-2,5-dioxo-1-(3-(trifluoromethyl)phenyl)-1,2,5,6,7,8-hexahydroquinazolin-3(4H)-ylsulfonyl)butanoic acid] belongs 8.47; to `CCS(=O)(=O)c1cc(C#N)ccc1C1NC(=O)N(c2cccc(C(F)(F)F)c2)C2=C1C(=O)CCC2` (stereo not drawn) [Example 54, 4-(2,5-Dioxo-1-(3-(trifluoromethyl)phenyl)-1,2,3,4,5,6,7,8-octahydroquinazolin-4-yl)-3-(ethylsulfonyl)benzonitrile], 8.12.
To `N#Cc1ccc(C2C3=C(CCCC3=O)N(c3cccc(C(F)(F)F)c3)C(=O)N2C(=O)NCC2CC2)cc1` (stereo not drawn) [Example 70.5] belongs 8.85; to `CS(=O)(=O)c1cc(C#N)ccc1C1NC(=O)N(c2ccnc(C(F)(F)F)c2)C2=C1C(=O)CCC2` (stereo not drawn) [Example 57, 4-(2,5-Dioxo-1-(2-(trifluoromethyl)pyridin-4-yl)-1,2,3,4,5,6,7,8-octahydroquinazolin-4-yl)-3-(methylsulfonyl)benzonitrile], 7.14; to `CS(=O)(=O)N1CCN(C(=O)CN2C(=O)N(c3cccc(C(F)(F)F)c3)C3=C(C(=O)CCC3)C2c2ccc(C#N)cc2)CC1` (stereo not drawn) [Example 36.75], 8.62.
To `N#Cc1ccc(C2NC(=O)N(c3cccc(C(F)(F)F)c3)C3=C2C(=O)CCC3)cn1` (stereo not drawn) [Example 16, 5-(2,5-dioxo-1-(3-(trifluoromethyl)phenyl)-1,2,3,4,5,6,7,8-octahydroquinazolin-4-yl)-picolinonitrile] belongs 7.27; to `N#Cc1ccc(C2C3=C(CCCC3=O)N(c3cccc(C(F)(F)F)c3)C(=O)N2CC(=O)N2CCC3(CC2)CNC(=O)O3)cc1` (stereo not drawn) [Example 36.74], 8.68; to `CC(C)(C)COC(=O)N1C(=O)N(c2cccc(C(F)(F)F)c2)C2=C(C(=O)CCC2)C1c1ccc(C#N)cc1` (stereo not drawn) [Example 42, Neopentyl 4-(4-Cyanophenyl)-2,5-dioxo-1-(3-(trifluoromethyl)phenyl)-1,2,5,6,7,8-hexahydroquinazoline-3(4H)-carboxylate], 7.05.
The compound `N#Cc1ccc(C2C3=C(CCCC3=O)N(c3cccc(C(F)(F)F)c3)C(=O)N2CC(=O)NCC2CCCO2)cc1` (stereo not drawn) [Example 36.24] gave a pIC50 of 8.00.
For `CS(=O)(=O)N1C(=O)N(c2ccnc(C(F)(F)F)c2)C2=C(C(=O)CCC2)C1c1ccc(C#N)cc1` (stereo not drawn) [Example 69, 4-(3-(Methylsulfonyl)-2,5-dioxo-1-(2-(trifluoromethyl)pyridin-4-yl)-1,2,3,4,5,6,7,8-octahydroquinazolin-4-yl)benzonitrile] the value was 7.62; for `CC(C)(O)CCNC(=O)N1C(=O)N(c2cccc(C(F)(F)F)c2)C2=C(C(=O)CCC2)C1c1ccc(C#N)cc1` (stereo not drawn) [Example 70.16], 8.96; for `CC(C)CS(=O)(=O)N1C(=O)N(c2cccc(C(F)(F)F)c2)C2=C(C(=O)CCC2)C1c1ccc(C#N)cc1` (stereo not drawn) [Example 44.3], 8.29.
For `CS(=O)(=O)c1cc(C#N)ccc1[C@@H]1C2=C(CCCC2=O)N(c2cccc(C(F)(F)F)c2)C(=O)N1CC#N` [Example 59, (S)-4-(3-(Cyanomethyl)-2,5-dioxo-1-(3-(trifluoromethyl)phenyl)-1,2,3,4,5,6,7,8-octahydroquinazolin-4-yl)-3-(methylsulfonyl)benzonitrile] the value was 8.74; for `CN1C(=O)N(c2ccnc(C(F)(F)F)c2)C2=C(C(=O)CCC2)C1c1ccc(C#N)cc1` (stereo not drawn) [Example 65, 4-(3-Methyl-2,5-dioxo-1-(2-(trifluoromethyl)pyridin-4-yl)-1,2,3,4,5,6,7,8-octahydroquinazolin-4-yl)benzonitrile], 7.65; for `N#Cc1ccc(C2C3=C(CCCC3=O)N(c3cccc(C(F)(F)F)c3)C(=O)N2S(=O)(=O)c2ccccc2C#N)cc1` (stereo not drawn) [Example 44.11], 7.94.
In turn, `N#Cc1ccc(C2C3=C(CCCC3=O)N(c3cccc(C(F)(F)F)c3)C(=O)N2CC2CCOCC2)cc1` (stereo not drawn) [Example 26] gave a pIC50 of 7.93.
For the compound `CN1CCC(NC(=O)CN2C(=O)N(c3cccc(C(F)(F)F)c3)C3=C(C(=O)CCC3)C2c2ccc(C#N)cc2)CC1` (stereo not drawn) [Example 36.38], the pIC50 is 7.77.
Regarding `N#Cc1ccc([C@@H]2C3=C(CCCC3=O)N(c3cccc(C(F)(F)F)c3)C(=O)N2CC(=O)O)cc1` [Example 32A, (R)-2-(4-(4-Cyanophenyl)-2,5-dioxo-1-(3-(trifluoromethyl)phenyl)-1,2,5,6,7,8-hexahydroquinazolin-3(4H)-yl)acetic acid], the pIC50 is 8.34.
The compound `CN(C(=O)CN1C(=O)N(c2cccc(C(F)(F)F)c2)C2=C(C(=O)CCC2)C1c1ccc(C#N)cc1)C1CCS(=O)(=O)C1` (stereo not drawn) [Example 36.69] gave a pIC50 of 8.51.
Compound `CS(=O)(=O)c1cc(C#N)ccc1[C@@H]1C2=C(CCCC2=O)N(c2cccc(C(F)(F)F)c2)C(=O)N1C(=O)NC1(C#N)CC1` [Example 75.8] gave a pIC50 greater than 9.00.
For `CN(C(=O)N1C(=O)N(c2cccc(C(F)(F)F)c2)C2=C(C(=O)CCC2)C1c1ccc(C#N)cc1)c1cnn(C)c1` (stereo not drawn) [Example 39.14] the value was 7.82; for `CS(=O)(=O)N1C(=O)N(c2cccc(C(F)(F)F)c2)C2=C(C(=O)CCC2)C1c1ccc(C#N)cc1` (stereo not drawn) [Example 43, 4-(3-(Methylsulfonyl)-2,5-dioxo-1-(3-(trifluoromethyl)phenyl)-1,2,3,4,5,6,7,8-octahydroquinazolin-4-yl)benzonitrile], 8.40.
`CN(C)C(=O)CN1C(=O)N(c2cccc(C(F)(F)F)c2)C2=C(C(=O)CCC2)C1c1ccc(C#N)cc1` (stereo not drawn) [Example 34, 2-(4-(4-Cyanophenyl)-2,5-dioxo-1-(3-(trifluoromethyl)phenyl)-1,2,5,6,7,8-hexahydroquinazolin-3(4H)-yl)-N,N-dimethylacetamide] gave a pIC50 of 8.51.
